Test results published in patent publication US6787546B2, “Heterocycle derivatives and drugs” (Nippon Shinyaku Co., Ltd., priority 1999, dated 2004).
Converted amounts (≈) assume the structure as drawn. Like-named read-outs stand apart in the source and are kept apart here.

Assays:
[1] = system: Colon-26 (Mouse Colon Cancer) Cells; assay: Anticancer activity against Colon-26 cells transplanted in mice; type: in vivo; conditions: day 21; for Tumor growth inhibition rate (%): 5 times at intervals of 4 days; for Number of Survival: 6 animals/group
Protocol: Anticancer Activity Against Colon-26 (Mouse Colon Cancer) Cells Transplanted in Mice
Colon-26 cells cultured in vitro were transplanted subcutaneously with an injection syringe in the right axillary region of Balb/c 5-week-old male mice (5×10^5 cells/animal). The mice were divided into groups of 6 animals/group when the tumor volume had reached about 120 mm^3 (Experiment 1) or about 100 mm^3 (Experiment 2). The test drug dissolved in 5% glucose solution was administered intravenously 5 times in total once daily at intervals of 4 days. The mice of control group were treated in the same manner with 5% glucose solution. The tumor volume was calculated according to the Equation 1 below on the basis of the major and minor axes of the tumor measured at a given interval with vernier calipers. [formula]
The growth rate was then calculated according to the Equation 2 based on the tumor volume, which was then applied to the Equation 3 for the calculation of the growth inhibition rate in drug-treatment group relative to the control group. [formula]
The tumor growth inhibition rate and the number of survivals at day 21 after initiation of the administration are shown in Table 1.

[2] = Solubility in water; type: physicochemical
Protocol: The water solubility of the compound of the present invention was measured at 25° C. As the control compounds, (E)-4-(2-(2-(N-(4-methoxybenzenesulfonyl)amino)-phenyl)ethenyl)pyridine 1-oxide (Compound A) and (E)-4-(2-(2-(N-acetyl-N-(4-methoxy-benzenesulfonyl)amino)phenyl)ethenyl)pyridine 1-oxide (Compound B) were used.

[3] = Experiment 1 (tumor about 120 mm^3 at start), 50 mg/kg i.v.
[4] = Experiment 1, dose not printed (second dose line of Example 5), i.v.
[5] = Experiment 2 (tumor about 100 mm^3 at start), 50 mg/kg i.v.
[6] = Experiment 2 (tumor about 100 mm^3 at start), 75 mg/kg i.v.
[7] = Experiment 1 (tumor about 120 mm^3 at start), 75 mg/kg i.v.

COc1ccc(S(=O)(=O)N(C(=O)c2cccnc2)c2ccccc2/C=C/c2cc[n+]([O-])cc2)cc1.Cl.Cl
melting point: 187 to 189 °C

COc1ccc(S(=O)(=O)N(C(=O)CN)c2ccccc2/C=C/c2cc[n+]([O-])cc2)cc1.Cl
melting point: 235 to 237 °C

COc1ccc(S(=O)(=O)N(C(=O)CN2CCCCC2)c2ccccc2/C=C/c2cc[n+]([O-])cc2)cc1.Cl [Example 5, (E)-4-(2-(2-(N-(4-Methoxybenzenesulfonyl)-N-piperidinoacetyl-amino)phenyl)ethenyl)pyridine 1-oxide hydrochloride]
Tumor growth inhibition rate (%) [1, 3]: 78.0% | Number of Survival ([1]; Experiment 1, 50 mg/kg i.v.): 6/6 | Tumor growth inhibition rate (%) [1, 4]: 87.7% | Number of Survival [1, 4]: 6/6

COc1ccc(S(=O)(=O)N(C(=O)CN2CCN(c3cccnc3)CC2)c2ccccc2/C=C/c2cc[n+]([O-])cc2)cc1.Cl.Cl
melting point: 167 °C (dec.)

COc1ccc(S(=O)(=O)N(C(=O)CN2CCCC2)c2ccccc2/C=C/c2cc[n+]([O-])cc2)cc1.Cl [Example 14, (E)-4-(2-(2-(N-(4-Methoxybenzenesulfonyl)-N-pyrrolidinoacetylamino) -phenyl)ethenyl)pyridine 1-oxide hydrochloride]
Tumor growth inhibition rate (%) [1, 5]: 78.6% | Tumor growth inhibition rate (%) [1, 6]: 84.1% | Number of Survival ([1]; Experiment 2, 50 mg/kg i.v.): 6/6 | Number of Survival ([1]; Experiment 2, 75 mg/kg i.v.): 6/6

COc1ccc(S(=O)(=O)N(C(=O)CN(C)C)c2ccccc2/C=C/c2cc[n+]([O-])cc2)cc1.Cl [Example 8, (E)-4-(2-(2-(N-(N,N-Dimethylglycyl)-N-(4-methoxybenzenesulfonyl) -amino)phenyl)ethenyl)pyridine 1-oxide hydrochloride]
Tumor growth inhibition rate (%) [1, 3]: 87.0% | Tumor growth inhibition rate (%) [1, 7]: 95.9% | Number of Survival ([1]; Experiment 1, 50 mg/kg i.v.): 5/6 | Number of Survival ([1]; Experiment 1, 75 mg/kg i.v.): 5/6

COc1ccc(S(=O)(=O)N(C(=O)c2ccncc2)c2ccccc2/C=C/c2cc[n+]([O-])cc2)cc1.Cl.Cl
melting point: 198 to 200 °C

COc1ccc(S(=O)(=O)Nc2ccccc2/C=C/c2cc[n+]([O-])cc2)cc1 [Compound A, (E)-4-(2-(2-(N-(4-methoxybenzenesulfonyl)amino)-phenyl)ethenyl)pyridine 1-oxide]
solubility ([2]; 25 °C): 29 µg/mL (≈ 75.8 µM)

COc1ccc(S(=O)(=O)N(C(=O)CN2CCOCC2)c2ccccc2/C=C/c2cc[n+]([O-])cc2)cc1.Cl [Example 13, (E) -4-(2-(2-(N-(4-Methoxybenzenesulfonyl)-N-morpholinoacetyl-amino)phenyl)ethenyl)pyridine 1-oxide hydrochloride]
Tumor growth inhibition rate (%) [1, 5]: 73.8% | Tumor growth inhibition rate (%) [1, 6]: 92.6% | Number of Survival ([1]; Experiment 2, 50 mg/kg i.v.): 6/6 | Number of Survival ([1]; Experiment 2, 75 mg/kg i.v.): 6/6

COc1ccc(S(=O)(=O)N(C(=O)CN2CCN(c3ccccn3)CC2)c2ccccc2/C=C/c2cc[n+]([O-])cc2)cc1.Cl.Cl [Example 9, (E)-4-(2-(2-(N-(4-Methoxybenzenesulfonyl)-N-(4-(2-pyridyl)piperazino)acetylamino)phenyl)ethenyl)pyridine 1-oxide dihydrochloride]
Tumor growth inhibition rate (%) [1, 3]: 80.8% | Tumor growth inhibition rate (%) [1, 7]: 93.6% | Number of Survival ([1]; Experiment 1, 50 mg/kg i.v.): 6/6 | Number of Survival ([1]; Experiment 1, 75 mg/kg i.v.): 5/6

COc1ccc(S(=O)(=O)N(C(C)=O)c2ccccc2/C=C/c2cc[n+]([O-])cc2)cc1 [Compound B, (E)-4-(2-(2-(N-acetyl-N-(4-methoxy-benzenesulfonyl)amino)phenyl)ethenyl)pyridine 1-oxide]
solubility ([2]; 25° C., control compounds, read-out: water solubility): 18 µg/mL (≈ 42.4 µM)
